Values joined by “and” are separate entries in the source; they are usually repeats but may differ in a detail not shown here. Equal values may be shown once. Read-outs that look alike come from different tables or passages of the source. Where only a bound is given, the exact number is not on record here.

Series [1] relates to AR2 cells (HepG2-AR2). Description: Alamar Blue (resazurin) post hoc cell viability / cytotoxicity assay in AR2 cells. Conditions: spid Viability, sheet antagonist_fits; for hill_tp (Hill model top): 0 where win_model is Constant.
Description: (§1) For antagonist mode and cytotoxicity data, well-level normalized response (resp) was calculated as: resp=100 * RLU−bval/pval−bval where pval is the median RLU value of the MEC positive control wells (minimum four wells).
Series [2] concerns the target T1, human AR (Homo sapiens, UniProt P10275).
T1 sequence (P10275 1-920) 1: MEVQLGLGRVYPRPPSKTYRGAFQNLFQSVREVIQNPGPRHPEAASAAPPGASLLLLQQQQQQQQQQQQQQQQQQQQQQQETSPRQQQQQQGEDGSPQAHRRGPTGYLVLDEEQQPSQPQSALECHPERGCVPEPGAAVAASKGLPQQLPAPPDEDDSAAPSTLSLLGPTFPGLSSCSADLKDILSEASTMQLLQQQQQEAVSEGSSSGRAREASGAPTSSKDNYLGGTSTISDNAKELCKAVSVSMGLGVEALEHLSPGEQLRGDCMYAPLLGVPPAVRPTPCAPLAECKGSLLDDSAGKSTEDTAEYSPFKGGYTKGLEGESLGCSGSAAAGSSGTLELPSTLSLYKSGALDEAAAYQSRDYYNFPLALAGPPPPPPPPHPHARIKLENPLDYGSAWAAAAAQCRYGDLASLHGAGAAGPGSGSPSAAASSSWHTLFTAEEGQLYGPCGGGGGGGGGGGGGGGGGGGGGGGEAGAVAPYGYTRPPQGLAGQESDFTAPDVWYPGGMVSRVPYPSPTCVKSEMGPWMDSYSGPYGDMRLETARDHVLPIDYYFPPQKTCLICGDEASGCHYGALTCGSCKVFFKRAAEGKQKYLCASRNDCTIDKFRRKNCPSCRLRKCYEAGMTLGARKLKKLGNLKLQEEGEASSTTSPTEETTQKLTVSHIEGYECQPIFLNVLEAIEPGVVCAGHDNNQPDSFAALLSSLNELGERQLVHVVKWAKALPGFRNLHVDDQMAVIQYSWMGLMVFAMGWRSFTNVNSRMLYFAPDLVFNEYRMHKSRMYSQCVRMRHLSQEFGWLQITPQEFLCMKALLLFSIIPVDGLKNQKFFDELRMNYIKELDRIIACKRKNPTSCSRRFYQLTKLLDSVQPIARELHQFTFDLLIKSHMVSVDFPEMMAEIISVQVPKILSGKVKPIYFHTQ
T1 sequence (P10275 1-920) 2: T1 sequence (P10275 1-920) 1
Description: AR2 assay, antagonist mode: disruption of R1881 (10 nM)-induced AR homodimerization in HepG2-AR2 cells. Format: cell-based.

In series [3] the test system is full-length human AR and the receptor interacting domain (RID) of SRC1. Details: method as in U.S. EPA, 2002b. Conditions: cited from earlier work.
Series [4] deals with human AR (LBD and AF2 domains) and the RID of human SRC2. Further details: method as in U.S. EPA, 2002b. Conditions: activity call, agonist mode, 2 h; invitroDBv3.4 ref U.S. EPA, 2002b; cited from earlier work.
For series [5], the system named is AR. Further details: method as in Kleinstreuer et al., 2017. Conditions: 2017, cited from earlier work; for Agonist reference: AR agonist reference class ref Kleinstreuer et al.; for Antagonist reference: AR antagonist reference class ref Kleinstreuer et al.
Series [6] has as its target T1, human AR. In words: cell-based. Details: species or system AR2 cells (HepG2-AR2); NanoLuc complementation AR homodimerization, antagonist mode, loss of agonist-induced luminescence, AC50 by Hill fit. Conditions: hill_ga, antagonist mode, 10 nM agonist stimulus, 18 h, no CYP expressed.
Series [7] relates to human AR (LBD and AF2 domains) and the RID of human SRC2. Further details: method as in U.S. EPA, 2002b. Conditions: cited from earlier work.
Series [8] deals with T1, human AR. In words: AR2 assay, agonist mode: ligand-dependent AR homodimerization (NanoBiT luciferase complementation) in stable HepG2-AR2 cells.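 As to hill tp: Log2 fold change of luminescence over DMSO vehicle wells.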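 As to max med: Log2 fold change of luminescence over DMSO vehicle wells.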 Type of series: cell-based. Further details: Emax: dose or concentration left out as unconfirmed.
Series [9] concerns the target T1, human AR. In words: cell-based. Details: species or system AR2 cells (HepG2-AR2); NanoLuc complementation AR homodimerization, agonist mode, luminescence gain, AC50 by Hill fit. The conditions noted are these: hill_ga.
Series [10] concerns the target T1, human AR. In words: AR2 assay, antagonist mode, retrofitted with human CYP metabolism by mRNA transfection (biogroups no RNA, Bgal, ten CYPs).
The subject of series [11] is AR2 cells (HepG2-AR2).
Description: as §1
Series [12] concerns the target T1, human AR.
In series [13] the target is T1, human AR. In words: cell-based.
The mark [14] stands for this setting: spid AR_antagonist, sheet antagonist_fits.
Setting [15] is: spid AR_antagonist, sheet antagonist_fits, 0 where win_model is Constant.
Where [16] appears, read: sheet agonist_fits, Hill model top (efficacy), 0 given where win_model is Constant.
Where [17] appears, read: sheet agonist_fits, maximum median response.
The mark [18] stands for this setting: sheet agonist_fits, winning concentration-response model (Constant, Hill, Gain-Loss).

In the case of `CC1(C)[C@H](C(=O)O[C@H](C#N)c2cccc(Oc3ccccc3)c2)[C@@H]1C=C(Br)Br` [Deltamethrin], in [1], the “max_med (maximum median response)” value is 34.81 and the “hill_tp (Hill model top)” value is reported as 34.1073. The AR2 antagonist in series [2] (activity call, antagonist mode, 18 h) came to 0. In series [2] (setting [14]), the “max_med (maximum median response)” value is 65.39 and the “win_model (winning concentration-response model)” value is “Hill”. Besides, in series [2] (setting [15]), the “hill_gw (Hill model slope)” value was 2.614 and the “hill_tp (Hill model top)” value was 65.8008. In addition, the “OT 8 hr” value in series [3] (activity call, 8 h, single protocol detects agonists and antagonists, invitroDBv3.4 ref U.S. EPA, 2002b) was 0. For the same compound, the “OT 16 hr” value in series [3] (activity call, 16 h, single protocol detects agonists and antagonists, invitroDBv3.4 ref U.S. EPA, 2002b) is reported as 0. Moreover, the UPitt agonist in [4] is given as 0. Further, in [5], the Agonist reference result is listed as “Inactive” and the Antagonist reference result is recorded as “Inactive”. Moreover, in [5] (Supplementary Table S1), the Agonist reference entry is listed as “Inactive” and the Antagonist reference result is given as “Inactive”. In series [6] (spid=Bgal), this compound had an AC50 of 12.3 µM. The compound further gave an AC50 in series [6] (spid=No_RNA) of 12.8 µM. Further, the UPitt antagonist in [7] (activity call, antagonist mode, 2 h, invitroDBv3.4 ref U.S. EPA, 2002b) is given as 0. This compound yielded an AR2 agonist in series [8] (activity call, agonist mode, 18 h) of 0. Also, the hill_tp in series [8] (setting [16]) is on record as 0. The max_med in series [8] (setting [17]) came to 0.0322. In addition, the win_model entry in series [8] (setting [18]) is listed as “Constant”.
For the compound `C[C@]12CC[C@H]3C(=CCc4cc(O)ccc43)[C@@H]1CCC2=O` [Equilin], the AC50 was 2140 nM in series [9] (spid=Bgal, agonist mode, 18 h, no CYP expressed); 2290 nM in series [9] (spid=No_RNA, agonist mode, 18 h, no CYP expressed); 0.487 µM in series [6] (spid=Bgal); 0.861 µM in series [6] (spid=No_RNA). For the same compound, in series [10] (CYP2C19 biogroup), the “effect of CYP metabolism on AR antagonist activity” value is “reduced the potency”. Further, the “hill_tp (Hill model top)” value is 92.4898 in [2] and 7.023 in [11]. For the same compound, the “max_med (maximum median response)” value in series [2] is given as 92.3262; in [11] (spid Viability, sheet antagonist_fits), 12.8285. For the same compound, in [2] (setting [14]), the “win_model (winning concentration-response model)” value was “Hill”. Moreover, the “hill_gw (Hill model slope)” value in [2] (setting [15]) was found to be 1.131. The same compound yielded a hill_gw in series [8] (sheet agonist_fits, Hill model gain slope (Hill coefficient), 0 given where win_model is Constant) of 1.401. Further, the hill_tp in series [8] (setting [16]) is listed as 3.175. The compound also showed a max_med in [8] (setting [17]) of 3.181. For the same compound, the win_model entry in series [8] (setting [18]) was “Hill”.
`C[C@]1(O)CC[C@H]2[C@@H]3CCC4=CC(=O)CCC4=C3C=C[C@@]21C` [R1881, (17b)-17-hydroxy-17-methyl-estra-4,9,11-trien-3-one]: the “effect of CYP metabolism on the AR2 assay controls” value in [12] is recorded as “unimpacted by CYP metabolism”. Also, in series [8], the hill_gw turned out to be 1.162, the hill_tp came out at 6.231, the max_med stood at 6.236 and the win_model entry was “Hill”. The Emax in series [8] (read-out: maximal response) is > 95%.
`CCC(=O)O[C@H]1CC[C@H]2[C@@H]3CCC4=CC(=O)CC[C@]4(C)[C@H]3CC[C@]12C` [Testosterone propionate] had an AC50 in [9] of 234 nM. The “change of AC50 value” in [10] (median across all biogroups versus CYP2C8, CYP2C9, CYP2C19, CYP3A4) is listed as “more than 2 fold”. In addition, in [1], the “max_med (maximum median response)” value came out at 32.5936 and the “hill_tp (Hill model top)” value was found to be 43.3025. In series [13], the AC50 was 169 nM and 529 nM and 333 nM and 440 nM and 380 nM. Further, in [2], the AR2 antagonist was found to be 1, the “hill_gw (Hill model slope)” value amounted to 1.115, the “hill_tp (Hill model top)” value amounted to 100.853 and the “max_med (maximum median response)” value is on record as 102.627. Further, the “win_model (winning concentration-response model)” value in series [2] was “Hill”. In series [3], the “OT 8 hr” value is listed as 1 and the “OT 16 hr” value is listed as 1. The UPitt agonist in [4] was 0. In [5], the Agonist reference result is “Strong” and the Antagonist reference result is “Inactive”. The Agonist reference result in series [5] (Supplementary Table S1) is “Strong”. Also, the UPitt antagonist in series [7] was 0. Also, in [8], the AR2 agonist is listed as 1, the hill_gw is 0.9765, the hill_tp came out at 2.087 and the max_med was found to be 2.0998. Besides, the win_model result in series [8] was “Gain-Loss”.

The record behind these values is paper PMC10112521, “High-throughput AR dimerization assay identifies androgen disrupting chemicals and metabolites” (Frontiers in Toxicology, 2023).
